Test results as given in ChEMBL document CHEMBL1142203, “Antiviral activities of novel 5-phosphono-pent-2-en-1-yl nucleosides and their alkoxyalkyl phosphonoesters” (Antimicrob Agents Chemother, 2007).

Tests used:
[1] = test system: Human betaherpesvirus 5; experiment: Antiviral activity against HCMV AD169 in HFF cells by plaque reduction assay; assay type: functional, organism-based; conditions: Human betaherpesvirus 5, AD169, HFF
[2] = test system: Human alphaherpesvirus 1; experiment: Antiviral activity against HSV1 in MRC5 cells by DNA reduction assay; assay type: functional, organism-based; conditions: Human alphaherpesvirus 1, MRC5
[3] = test system: Vaccinia virus; experiment: Antiviral activity against Vaccinia virus Copenhagen in HFF cells by plaque reduction assay; assay type: functional, organism-based; conditions: Orthopoxvirus vaccinia
[4] = test system: Cowpox virus; experiment: Antiviral activity against Cowpox virus Brighton in HFF cells by plaque reduction assay; assay type: functional, organism-based
[5] = test system: Human alphaherpesvirus 3; experiment: Antiviral activity against VZV Ellen in HFF cell by CPE assay; assay type: functional, organism-based; conditions: Human alphaherpesvirus 3, Ellen
[6] = Cytotoxicity against HFF cells by neutral red uptake assay; assay type: cell-based; conditions: human
[7] = Cytotoxicity against plated MRC5 cells by neutral red uptake assay; assay type: cell-based; conditions: human
[8] = test system: Hepatitis B virus; experiment: Antiviral activity against HBV in HepG2 2.2.15 cells after 24 hrs by DNA reduction assay; assay type: functional, organism-based; conditions: HepG2, 24 h
[9] = Cytotoxicity against HepG2 2.2.15 cells assessed as inhibition of uptake of neutral red dye after 24 hrs; assay type: cell-based; conditions: human
[10] = Selectivity index, ratio of CC50 for HepG2 2.2.15 cells to EC50 for HBV; assay type: functional
[11] = test system: Hepatitis B virus; experiment: Antiviral activity against wild type HBV in Huh7 cells after 5 days; assay type: functional, organism-based; conditions: Huh-7, 120 h
[12] = test system: Hepatitis B virus; experiment: Antiviral activity against HBV with lamivudine-resistant polymerase L180M mutant in Huh7 cells after 5 days; assay type: functional, organism-based; conditions: Huh-7, 120 h
[13] = test system: Hepatitis B virus; experiment: Antiviral activity against HBV with lamivudine-resistant polymerase M204V mutant in Huh7 cells after 5 days; assay type: functional, organism-based; conditions: Huh-7, 120 h
[14] = test system: Hepatitis B virus; experiment: Antiviral activity against HBV with lamivudine-resistant polymerase M204I mutant in Huh7 cells after 5 days; assay type: functional, organism-based; conditions: Huh-7, 120 h
[15] = test system: Hepatitis B virus; experiment: Antiviral activity against HBV with lamivudine-resistant polymerase L180M/M204V double mutant in Huh7 cells after 5 days; assay type: functional, organism-based; conditions: Huh-7, 120 h
[16] = test system: Hepatitis B virus; experiment: Antiviral activity against HBV with […]-resistant polymerase N236T mutant in Huh7 cells after 5 days; assay type: functional, organism-based; conditions: Huh-7, 120 h
[17] = Cytotoxicity against Huh7 cells; assay type: cell-based, Huh-7; conditions: human
[18] = test system: Human immunodeficiency virus 1; experiment: Antiviral activity against HIV1 LAI in MT2 cells assessed as inhibition of p24 antigen production; assay type: functional, organism-based; conditions: Human immunodeficiency virus 1, LAI
[19] = Cytotoxicity against MT2 cells after 72 hrs; assay type: cell-based; conditions: human
[20] = test system: Human gammaherpesvirus 4; experiment: Antiviral activity against EBV in Daudi cells by ELISA; assay type: functional, organism-based; conditions: human gammaherpesvirus 4, Daudi
[21] = Cytotoxicity against Daudi cells; assay type: cell-based; conditions: human

Row | Structure (SMILES) | EC50 [1] [µM] | EC50 [2] [µM] | EC50 [3] [µM] | EC50 [4] [µM] | EC50 [5] [µM] | CC50 [6] [µM] | CC50 [7] [µM] | EC50 [8] [µM] | CC50 at 24 h [9] [µM] | Ratio CC50/EC50 [10] | EC50 [11] [µM] | EC50 [12] [µM] | EC50 [13] [µM] | EC50 [14] [µM] | EC50 [15] [µM] | EC50 [16] [µM] | CC50 [17] [µM] | EC50 [20] [µM] | other results
1 | O=c1nc(O)ccn1C/C=C\CCP(=O)(O)O | > 100 | > 30 | > 100 | > 100 | > 300 | > 100 | > 100 | > 30 | 712 | – | – | – | – | – | – | – | – | – | –
2 | Cc1cn(C/C=C\CCP(=O)(O)O)c(=O)[nH]c1=O | > 100 | > 30 | > 100 | > 100 | > 300 | > 100 | > 100 | > 30 | 620 | – | – | – | – | – | – | – | – | – | –
3 | CCCCCCCCCCCCCCCCOCCCOP(=O)(O)CC/C=C\Cn1cc(C)c(=O)[nH]c1=O | 0.66 | 0.9 | > 20 | > 20 | 3 | > 100 | – | 2 | 122 | 61 | 3 | > 100 | > 100 | > 100 | > 100 | 3.8 | 120 | – | EC50 [18]: 1 µM; CC50 at 72 h [19]: 1.3 µM
4 | CCCCCCCCCCCCCCCCOCCCOP(=O)(O)CC/C=C\Cn1cnc2c(=O)nc(N)[nH]c21 | 1.8 | 5.8 | 7.5 | 11 | 12.2 | > 100 | – | 2.4 | > 1000 | >417 | 8.8 | > 100 | 16 | 13 | > 100 | 6.3 | 929 | 48 | –
5 | Nc1nc(=O)c2ncn(C/C=C\CCP(=O)(O)O)c2[nH]1 | 68.4 | > 30 | > 100 | > 100 | 7.2 | > 100 | > 100 | > 30 | 610 | – | – | – | – | – | – | – | – | – | –
6 | CCCCCCCCCCCCCCCCOCCCOP(=O)(O)CC/C=C\Cn1ccc(N)nc1=O | 2.9 | 4.7 | > 20 | > 20 | 3.7 | 56 | – | 3.9 | 621 | 159 | 3.4 | > 100 | > 100 | > 100 | > 100 | 4 | 523 | – | EC50 [18]: 2.5 µM; CC50 at 72 h [19]: 3.3 µM
7 | CCCCCCCCCCCCCCCCOCCCOP(=O)(O)CC/C=C\Cn1ccc(=O)[nH]c1=O | > 20 | > 30 | > 100 | > 100 | – | > 100 | – | > 30 | 155 | – | – | – | – | – | – | – | – | – | –
8 | Nc1ncnc2c1ncn2C/C=C\CCP(=O)(O)O | > 100 | > 30 | > 100 | > 100 | > 300 | > 100 | > 100 | > 30 | 639 | – | – | – | – | – | – | – | – | > 4 | –
9 | Nc1ccn(C/C=C\CCP(=O)(O)O)c(=O)n1 | > 100 | > 30 | > 100 | > 100 | > 60 | > 100 | > 100 | > 30 | 600 | – | – | – | – | – | – | – | – | – | –
10 | CCCCCCCCCCCCCCCCOCCCOP(=O)(O)CC/C=C\Cn1cnc2c(N)ncnc21 | 15.7 | 18 | > 30 | > 20 | > 20 | 43 | – | 1.5 | 116 | 77 | 9.2 | 15 | 9 | 7.7 | 8.1 | 10 | 110 | 0.1 | CC50 [21]: > 100 µM
